From PubChem BioAssay (NCI)
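Cells were grown in 96-well plates and exposed to each compound for 48 hours at five concentrations; endpoints were interpolated linearly between bracketing concentrations, or set to the highest concentration if not reached. GI50 marks 50% less growth. TGI denotes the concentration required for complete inhibition of growth.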

How the values were obtained:
Test in all cases: NCI-60 cell line screen, 48 h
[1] = tested on: 786-0 renal
[2] = tested on: SF-539 CNS
[3] = tested on: HOP-62 NSCLC
[4] = tested on: NCI-H23 lung
[5] = tested on: SF-268 CNS
[6] = tested on: OVCAR-4 ovarian
[7] = tested on: OVCAR-8 ovarian
[8] = tested on: MCF7 breast
[9] = tested on: LOX IMVI melanoma
[10] = tested on: T-47D breast
[11] = tested on: OVCAR-3 ovarian
[12] = tested on: KM12 colon
[13] = tested on: MDA-MB-231 breast
[14] = tested on: SR leukemia
[15] = tested on: HCC-2998 colon
[16] = tested on: EKVX NSCLC
[17] = tested on: HOP-92 NSCLC
[18] = tested on: COLO 205 colon
[19] = tested on: HCT-116 colon
[20] = tested on: K-562 leukemia
[21] = tested on: TK-10 renal
[22] = tested on: MALME-3M melanoma
[23] = tested on: NCI/ADR-RES ovarian
[24] = tested on: IGROV1 ovarian
[25] = tested on: RPMI-8226 leukemia
[26] = tested on: BT-549 breast
[27] = tested on: UACC-62 melanoma
[28] = tested on: MOLT-4 leukemia
[29] = tested on: M14 melanoma
[30] = tested on: SK-MEL-28 melanoma
[31] = tested on: HT29 colon
[32] = tested on: HL-60(TB) leukemia
[33] = tested on: SK-MEL-2 melanoma
[34] = tested on: CAKI-1 renal
[35] = tested on: NCI-H226 lung
[36] = tested on: HCT-15 colon
[37] = tested on: NCI-H460 lung
[38] = tested on: SK-MEL-5 melanoma
[39] = tested on: MDA-MB-435
[40] = tested on: ACHN renal
[41] = tested on: A498 renal
[42] = tested on: NCI-H522 lung
[43] = tested on: UACC-257 melanoma
[44] = tested on: SN12C renal
[45] = tested on: SK-OV-3 ovarian
[46] = tested on: SNB-75 CNS
[47] = tested on: SF-295 CNS
[48] = tested on: SNB-19 CNS
[49] = tested on: UO-31 renal
[50] = tested on: CCRF-CEM leukemia
[51] = tested on: HS 578T breast
[52] = tested on: A549 NSCLC
[53] = tested on: SW-620 colon
[54] = tested on: PC-3 prostate
[55] = tested on: OVCAR-5 ovarian
[56] = tested on: U251 CNS
[57] = tested on: DU-145 prostate

In the case of `O=C(CCCCCCNC(=O)C(O)(O)C(F)(F)F)Nc1ncc(-c2ccccc2)s1`, the GI50 [1] is reported as 3.8 µM, the TGI [1] is reported as > 23.5 µM and the GI50 [2] is reported as 5.63 µM. The TGI [2] was > 23.5 µM, the GI50 [3] was 4.93 µM and the TGI [3] was > 23.5 µM. For the same compound, the GI50 [4] was 4.56 µM, the TGI [4] was > 23.5 µM and the GI50 [5] was 5.58 µM. The TGI [5] was 17.8 µM, the GI50 [6] was 11.1 µM and the TGI [6] was > 23.5 µM. For the same compound, the GI50 [7] was 2.9 µM, the TGI [7] was > 23.5 µM and the GI50 [8] was 7.19 µM. The TGI [8] was > 23.5 µM, the GI50 [9] was 2.52 µM and the TGI [9] was 5.79 µM. The GI50 [10] was 3.73 µM, the TGI [10] was > 23.5 µM and the GI50 [11] was 2.38 µM. For the same compound, the TGI [11] was 5.97 µM, the GI50 [12] was 4.51 µM and the TGI [12] was > 23.5 µM. For the same compound, the GI50 [13] was 2.48 µM, the TGI [13] was 14.9 µM and the GI50 [14] was 1.01 µM. The TGI [14] was > 23.5 µM, the GI50 [15] was 4.71 µM and the TGI [15] was 13.5 µM. The GI50 [16] was 8.16 µM, the TGI [16] was > 23.5 µM and the GI50 [17] was 0.695 µM. For the same compound, the TGI [17] was 4.26 µM, the GI50 [18] was 3.5 µM and the TGI [18] was 10.5 µM. The GI50 [19] was 0.7 µM, the TGI [19] was > 23.5 µM and the GI50 [20] was 1.26 µM. The TGI [20] was > 23.5 µM, the GI50 [21] was 0.679 µM and the TGI [21] was > 23.5 µM. For the same compound, the GI50 [22] was 1.79 µM, the TGI [22] was 14.2 µM and the GI50 [23] was 4.27 µM. For the same compound, the TGI [23] was 17.1 µM, the GI50 [24] was 3.23 µM and the TGI [24] was 9.98 µM. For the same compound, the GI50 [25] was 1.96 µM, the TGI [25] was > 23.5 µM and the GI50 [26] was 2.47 µM. For the same compound, the TGI [26] was 16.6 µM, the GI50 [27] was 1.65 µM and the TGI [27] was 5.61 µM. For the same compound, the GI50 [28] was 1.3 µM, the TGI [28] was > 23.5 µM and the GI50 [29] was 5.32 µM. The TGI [29] was > 23.5 µM, the GI50 [30] was 3.29 µM and the TGI [30] was > 23.5 µM. For the same compound, the GI50 [31] was 2.72 µM, the TGI [31] was > 23.5 µM and the GI50 [32] was 3.53 µM. The TGI [32] was > 23.5 µM, the GI50 [33] was 3.64 µM and the TGI [33] was 14.6 µM. The GI50 [34] was 5.6 µM, the TGI [34] was > 23.5 µM and the GI50 [35] was 5.58 µM. For the same compound, the TGI [35] was > 23.5 µM, the GI50 [36] was 3.99 µM and the TGI [36] was 10.5 µM. For the same compound, the GI50 [37] was 2.57 µM, the TGI [37] was > 23.5 µM and the GI50 [38] was 3.46 µM. For the same compound, the TGI [38] was 7.22 µM, the GI50 [39] was 4.45 µM and the TGI [39] was > 23.5 µM. The GI50 [40] was 3.56 µM, the TGI [40] was 15.3 µM and the GI50 [41] was 0.493 µM. It also gave a TGI [41] of 5.68 µM, a GI50 [42] of 3.67 µM and a TGI [42] of 15.6 µM. The GI50 [43] was 4.91 µM, the TGI [43] was > 23.5 µM and the GI50 [44] was 3.75 µM. The TGI [44] was > 23.5 µM, the GI50 [45] was 3.51 µM and the TGI [45] was 17.6 µM. For the same compound, the GI50 [46] was 1.33 µM, the TGI [46] was > 23.5 µM and the GI50 [47] was 3.49 µM. It also gave a TGI [47] of 8.88 µM, a GI50 [48] of 4.81 µM and a TGI [48] of 22 µM. It also gave a GI50 [49] of 3.72 µM, a TGI [49] of 14 µM and a GI50 [50] of 2.93 µM. For the same compound, the TGI [50] was > 23.5 µM, the GI50 [51] was 2.62 µM and the TGI [51] was 18.4 µM. For the same compound, the GI50 [52] was 5.96 µM, the TGI [52] was > 23.5 µM and the GI50 [53] was 2.4 µM. For the same compound, the TGI [53] was 9.91 µM, the GI50 [54] was 3.39 µM and the TGI [54] was > 23.5 µM. For the same compound, the GI50 [55] was 2.07 µM, the TGI [55] was 13.6 µM and the GI50 [56] was 3.07 µM. For the same compound, the TGI [56] was 10.8 µM, the GI50 [57] was 5.26 µM and the TGI [57] was > 23.5 µM.
